Test results reported in paper PMC10214525, “A Turn-On Fluorescent Amino Acid Sensor Reveals Chloroquine’s Effect on Cellular Amino Acids via Inhibiting Cathepsin L” (ACS Central Science, 2023).

Columns and labels:
Cathepsin L (CTSL) = target: T1, Cathepsin L (CTSL) (Homo sapiens, UniProt P07711); experiment: Z-FR-AMC fluorogenic cleavage assay, pH […]; supported by intrinsic fluorescence of CTSL-Flag and CQ-X chase; type: biochemical
T1 construct: commercial purified CTSL (BPS Biosciences kit); CTSL-Flag-Myc purified from HEK-293T for intrinsic fluorescence

NPC2 = target: T2, NPC2 (Homo sapiens, UniProt P61916); experiment: competition (chase) of CQ-X photo-cross-linking in cells; type: cell-based
T2 construct: endogenous, A549 cells
T2 sequence (P61916 20-151): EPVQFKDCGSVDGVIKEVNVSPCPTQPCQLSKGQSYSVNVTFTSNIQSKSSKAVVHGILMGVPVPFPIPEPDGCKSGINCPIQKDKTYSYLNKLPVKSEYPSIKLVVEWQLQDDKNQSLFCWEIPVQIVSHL

T1 sequence (P07711 114-288): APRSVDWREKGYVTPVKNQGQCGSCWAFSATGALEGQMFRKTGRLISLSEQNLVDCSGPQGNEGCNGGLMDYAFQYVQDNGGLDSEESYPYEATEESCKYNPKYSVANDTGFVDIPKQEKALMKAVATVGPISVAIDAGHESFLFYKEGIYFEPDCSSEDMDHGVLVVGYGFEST
T1 sequence (P07711 292-333): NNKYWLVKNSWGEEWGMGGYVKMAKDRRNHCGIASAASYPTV

Compound: CCN(CC)CCCC(C)Nc1ccnc2cc(Cl)ccc12 (centres unmarked) [CQ, chloroquine]
- IC50 (Cathepsin L (CTSL)): 181 µM
- competition (chase) of CQ-X photo-cross-linking in cells (NPC2): The results confirmed that chloroquine could bind to NPC2 and CTSL.
